Values of other authors, collected in patent US20070037797A1, “Method of reducing the risk of adverse cardiovascular (CV) events associated with the administration of pharmaceutical agents which favor CV events” (priority 2005, published 2007).
Where two headings read alike, the source gives them in different places.

Assays:
[1] = high-risk patients with diabetes mellitus, compared to placebo
[2] = in vivo
[3] = in vivo; remark: listed apart in the source
[4] = Losartan 50 mg vs. captopril 50 mg three times daily, patients with heart failure
[5] = losartan vs. captopril
[6] = FDA determination
[7] = individuals with essential hypertension
[8] = use at high frequency or dose
[9] = 10 mg dose
[10] = 25 mg/day of rofecoxib versus placebo
[11] = versus the non-selective NSAID naproxen
[12] = test system: COX-2 relative to COX-1
[13] = not given; remark: listed apart in the source

CCOC(=O)[C@H](CCc1ccccc1)N[C@@H](C)C(=O)N1[C@H](C(=O)O)C[C@@H]2CCC[C@@H]21 [ramipril]
relative risk reduction, combined primary outcome of myocardial infarction, stroke, and cardiovascular death [1]: 25%

COc1ccc(OC(=O)N(CC(=O)O)Cc2ccc(OCCc3nc(-c4ccccc4)oc3C)cc2)cc1 [muraglitazar]
risk of myocardial infarct and stroke [2]: increases the risk of myocardial infarct and stroke

O=C(c1ccc(OCCN2CCCCC2)cc1)c1c(-c2ccc(O)cc2)sc2cc(O)ccc12 [raloxifene]
risk of stroke [3]: increases the risk of stroke

CCCCc1nc(Cl)c(CO)n1Cc1ccc(-c2ccccc2-c2nn[nH]n2)cc1 [Losartan]
mortality [4]: significant reduction in mortality | clinical endpoints [5]: no significant difference

Cc1ccc(-c2cc(C(F)(F)F)nn2-c2ccc(S(N)(=O)=O)cc2)cc1 [celecoxib]
risk of adverse CV events compared to placebo [6]: increased risk of adverse CV events | hazard for the composite endpoint of death from CV causes (200 mg twice daily compared to placebo): 2.5 | hazard for the composite endpoint of death from CV causes (400 mg twice daily compared to placebo): 3.4 | increase in adverse CV events (versus placebo after a mean duration of 33 months): 2-3 fold

Cc1onc(-c2ccccc2)c1-c1ccc(S(N)(=O)=O)cc1 [valdecoxib]
risk of adverse CV events compared to placebo [6]: increased risk of adverse CV events

CCC(=O)NS(=O)(=O)c1ccc(-c2c(-c3ccccc3)noc2C)cc1 [parecoxib]
endothelial dysfunction [7]: worsening

CC(=O)Nc1ccc(O)cc1 [acetaminophen]
risk of adverse CV events [8]: significant increase

CC(C)c1c(C(=O)Nc2ccccc2)c(-c2ccccc2)c(-c2ccc(F)cc2)n1CC[C@@H](O)C[C@@H](O)CC(=O)O [atorvastatin]
reduction in LDL [9]: 39%

CS(=O)(=O)c1ccc(C2=C(c3ccccc3)C(=O)OC2)cc1 [rofecoxib]
increase in the incidence of serious thrombotic adverse events [10]: approximately two | increase in the incidence of myocardial infarction [11]: approximately two | risk of adverse CV events compared to placebo [6]: increased risk of adverse CV events | selectivity for COX-2 compared with celecoxib [12]: 10 times

CCCCC(=O)N(Cc1ccc(-c2ccccc2-c2nnn[nH]2)cc1)[C@H](C(=O)O)C(C)C [valsartan]
survival and rates of non-fatal CV events ([13]; patients with myocardial infarction): improved survival and reduced the rates of non-fatal CV events | improving survival and reducing cardiovascular morbidity compared with captopril ([13]; target dose of 160 mg twice daily): as effective as the ACE inhibitor captopril
